From patent US6630498B2 (SmithKline Beecham Corporation, priority 1997, dated 2003)

Experiments:
[1] = Mucosal to serosal permeability through rabbit colon in vitro; type: in vitro ADME
[2] = cited from earlier work
[3] = Flow through dissolution of granules with pH gradient; type: physicochemical; settings: for in vitro dissolution profile (in words): compared to the monomethanesulfonate salt (granules); for Percent of Eprosartan dissolved from the granules: flow through 8 mL/min, 37° C.
Protocol: A flow through dissolution apparatus at 8 mL/min flow rate, 37° C. and the following pH gradient

SMILES	increase of mucosal to serosal permeability through rabbit colon ([1]; in the presence of L-arginine as a solution, compared to the monomethanesulfonate alone)	bioavailability (in words) ([2]; human)	mean absolute bioavailability ([2]; human)	time to maximum concentration ([2]; human, fed state)	safety and tolerability in human clinical studies ([2]; up to doses of 800 mg per day)	in vitro permeability through rabbit colon (in words) ([1]; compared to the monomethanesulfonate salt)	in vitro dissolution profile (in words) [3]	in vitro dissolution profile (in words) ([3]; listed as arginine charge-neutralization-complex)	Percent of Eprosartan dissolved from the granules ([3]; time 0 min, pH gradient)	Percent of Eprosartan dissolved from the granules ([3]; time 45 min (pH 1.2 SGF step))	Percent of Eprosartan dissolved from the granules ([3]; time 90 min (pH 3.0 step))	Percent of Eprosartan dissolved from the granules ([3]; time 120 min (pH 4.0 step))	Percent of Eprosartan dissolved from the granules ([3]; time 150 min (pH 5.0 step))	Percent of Eprosartan dissolved from the granules ([3]; time 180 min (pH 6.0 step))	Percent of Eprosartan dissolved from the granules ([3]; time 225 min (pH 7.5 step))
CCCCc1ncc(/C=C(\Cc2cccs2)C(=O)O)n1Cc1ccc(C(=O)O)cc1 [(E)-α-[2-n-Butyl-1-[(4-carboxyphenyl)methyl]-1H-imidazol-5-yl]methylene-2-thiophenepropionic acid monomethanesulfonate]	50%	low and variable bioavailability	approximately 13%	2.5 to 4 h	safe and well tolerated	–	–	–	–	–	–	–	–	–	–
CCCCc1ncc(/C=C(\Cc2cccs2)C(=O)O)n1Cc1ccc(C(=O)O)cc1.N=C(N)NCCC[C@H](N)C(=O)O [Arginyl charge-neutralization-complex, (E)-α-[2-n-butyl-1-[(4-carboxyphenyl)methyl]-1H-imidazol-5-yl]methylene-2-thiophenepropionic acid arginyl charge-neutralization-complex]	–	–	–	–	–	increased in vitro permeability	improved in vitro dissolution profile	better dissolution profile	0.00%	32.81%	35.82%	36.24%	37.44%	46.70%	100.63%
